Reference: patent US20040121965A1, “Method of treating resistant tumors” (Wyeth Holdings Corporation, priority 2002, published 2004)
Like-named read-outs stand apart in the source and are kept apart here.

How the values were obtained:
KB-V1 (MDR1++) = test: Cell survival assay (SRB), KB-V1 (MDR1++); conditions: for IC50: Homo sapiens
KB-8-5 (MDR1+) = test: Cell survival assay (SRB), KB-8-5 (MDR1+); conditions: for IC50: Homo sapiens, MDR1, read-out: In vitro IC50 (nM) KB85
KB-3-1 = test: Cell survival assay (SRB), KB-3-1; assay type: cell-based, human; conditions: Homo sapiens, read-out: In vitro IC50 (nM) KB-3-1
Description: Cells lines with previously known mechanisms of resistance. […] Res. 8: 207-218,1996); KB-3-1 (parental derived from an epidermoid carcinoma), KB-8.5, KB-V1 (Akiyama S-I, Fojo A, Hanover J A, Pastan I, Gottesman M M. Isolation and genetic characterization of human KB cell lines resistant to multiple drugs. Somatic Cell Mol. Gen., 11: 117-126,1985; Shen D-W, Cardarelli C, Hwang J, Cornwell M, Richert N, Ishii S, Pastan I, Gottesman MM. […] J. Biol. Chem., 261: 7762-7770, 1986); and HL-60 (parental derived from human leukemia) and HL60/AR (McGrath T., Center M. S. Adriamycin resistance in HL60 cells in the absence of detectable P-glycoprotein. Biochem. Res. Commun., 145:1171-1176,1987); A549 and A549.EpoB40 (He L., Yang C.-P.H., Horwitz S. B. Mutations in p-tubulin map to domains involved in regulation of microtubule stability in epothilone-resistant cell lines. Molecular Cancer Therapeutics. 1: 3-10, 2001). HCT-15 human colon carcinoma and DLD-1 human colon carcinoma are obtained from American Tissue Culture Collection. The MX-1W carcinoma is a Wyeth variant orginally obtained as MX-1 breast carcinoma from the National Cancer Institute. Cell lines selected for resistance to Representative Example 129. KB-3-1 cells are selected for resistance to Example 129 by chronically exposing cells to increasing concentrations of Example 129.
2.2. Cell Survival Assay: Standard Pharmacological Test Procedure. The concentration of candidate inhibitor required to inhibit 50% of cell growth (IC50) is done according to previously reported methods. […] Compounds are serially diluted into media as 2× stocks and 100 μl added to cells in duplicate. Compounds are incubated with cells for 3 days. At the end of the incubation period the sulforhodamine B (SRB) assay, which measures protein content as an assessment of cell survival, is performed as described previously (Skehan P, Storeng R, Scudiero D, Monks A, McMahon J, Vistica D, Warren J T, Bokesch H, Kenney S, Boyd MR. New calorimetric cytotoxicity assay for anticancer-drug screening. J Natl Cancer Inst 1990 Jul 4;82(13):1107-12) with some modification as follows. For KB-3-1 cells with 20% FCS, media is gently decanted and replaced with 200 μl of serum-free media mixed with cold 50% TCA for a final concentration of 10% TCA. The plates are incubated for 1 hr at 4° C., followed by washing 5 times in cold distilled water, then air dried overnight. The fixed cells are stained for 10 min with 80 μl of 0.04% SRB solution prepared in 1% glacial acetic acid. Stain is discarded and plates washed 5 times in 1% glacial acetic acid, then air-dried until completely dry. Stained cell product is dissolved in 150 μl of 10 mM Trizma Base and placed on a shaker for 20 minutes until fully dissolved. Absorbance is read on a Victor V multi-label plate reader (Perkin Elmer, Gaithersburg, Md.).

[1] = read-out: In vitro IC50 (nM) KBV1
[2] = KB 3-1, KB-3-1 cells (paclitaxel-sensitive parent)

| Structure (SMILES) | Ratio KBV1/KB (KB-V1 (MDR1++)) | IC50 (KB-V1 (MDR1++); [1]) [nM] | Ratio KB85/KB (KB-8-5 (MDR1+)) | IC50 (KB-8-5 (MDR1+)) [nM] | IC50 (KB-3-1; [2]) [nM] | IC50 (KB-V1 (MDR1++); read-out: In vitro IC50 KBV1) [nM] | Ratio KBV1/KB (KB-V1 (MDR1++); ratio of IC50 in KBV1 to IC50 in KB-3-1) | Ratio KB85/KB (KB-8-5 (MDR1+); ratio of IC50 in KB85 to IC50 in KB-3-1) | IC50 (KB-3-1; KB-3-1 cells (paclitaxel-sensitive parent)) [nM] |
| --- | --- | --- | --- | --- | --- | --- | --- | --- | --- |
| CN[C@H](C(=O)N[C@H](C(=O)N(C)[C@H](/C=C(\C)C(=O)O)C(C)C)C(C)(C)C)C(C)(C)c1c[nH]c2ccccc12 [Example 141, N,β,β-trimethyl-L-tryptophyl-N^1-[(1S,2E)-3-carboxy-1-isopropyl-2-butenyl]-N^1,3-dimethyl-L-valinamide] | 139.4 | 96.9 | 2.4 | 1.65 | 0.695 |  |  |  |  |
| C/C(=C\[C@H](C(C)C)N(C)C(=O)[C@@H](NC(=O)[C@@H](N1CCCC1)C(C)(C)c1ccccc1)C(C)(C)C)C(=O)O [Example 152, (2E,4S)-2,5-dimethyl-4-(methyl{3-methyl-N-[(2S)-3-methyl-3-phenyl-2-pyrrolidin-1-ylbutanoyl]-L-valyl}amino)hex-2-enoic Acid] | 40 | > 3000 | 2.1 | 158 | 75 |  |  |  |  |
| CN[C@H](C(=O)N[C@H](C(=O)N(C)[C@H](/C=C(\C)C(=O)O)C(C)C)C(C)(C)C)C(C)(C)c1cc(C)cc(C)c1 [Example 17, N,β,β,3,5-Pentamethyl-L-phenylalanyl-N^1-[(1S,2E)-3-carboxy-1-isopropyl-2-butenyl]-N^1,3-dimethyl-L-valinamide] | 75.7 | 44 |  | 1 | 1 |  |  |  |  |
| CN[C@H](C(=O)N[C@H](C(=O)N(C)[C@H](/C=C(\C)C(=O)OCc1cccs1)C(C)C)C(C)(C)C)C(C)(C)c1ccccc1 [Example 115, N,β,β-trimethyl-L-phenylalanyl-N^1-[(1S,2E)-1-isopropyl-3-methyl-4-oxo-4-(thien-2-ylmethoxy)but-2-enyl]-N^1,3-dimethyl-L-valinamide] |  |  | 46.2 | 231 | 5 | > 3000 |  |  |  |
| CN[C@H](C(=O)N[C@H](C(=O)N(C)[C@H](/C=C(\C)C(=O)O)C(C)C)C(C)(C)C)C(C)(C)c1ccc(OC(C)C)cc1 [Example 68, O-isopropyl-N,β,β-trimethyl-L-tyrosyl-N^1-[(1S,2E)-3-carboxy-1-isopropylbut-2-enyl]-N^1,3-dimethyl-L-valinamide] | 47.2 | 70.8 | 2.9 | 4.3 | 1.5 |  |  |  |  |
| CN[C@@H](C(=O)N[C@H](C(=O)N(C)[C@H](/C=C(\C)C(=O)O)C(C)C)C(C)(C)C)C1(c2ccccc2)CCCC1 [Example 72, (2E,4S)-2,5-dimethyl-4-(methyl{3-methyl-N-[(2R)-2-(methylamino)-2-(1-phenylcyclopentyl)ethanoyl]-L-valyl}amino)-2-hexenoic Acid] | 45.0 | 2660 | 1.1 | 63.1 | 59.3 |  |  |  |  |
| CN[C@@H](C(=O)N[C@H](C(=O)N(C)[C@H](/C=C(\C)C(=O)O)C(C)C)C(C)(C)C)C(C)(C)Cc1ccccc1 [Example 49, N,3-dimethyl-4-phenyl-D-valyl-N^1-[(1S,2E)-3-carboxy-1-isopropyl-2-butenyl]-N^1,3-dimethyl-L-valinamide] | 99.8 | 2000 | 2.8 | 55 | 20 |  |  |  |  |
| CCOC(=O)/C(C)=C/[C@H](C(C)C)N(C)C(=O)[C@@H](NC(=O)[C@H](NC)C(C)(C)c1ccc(C)cc1)C(C)(C)C [Example 10b, N,β,β,4-tetramethyl-D-phenylalanyl-N^1-[(1S,2E)-4-ethoxy-1-isopropyl-3-methyl-4-oxo-2-butenyl]-N^1,3-dimethyl-L-valinamide] | 6.7 | ≥ 3000 | 3.9 | 1740 | 447 |  |  |  |  |
| CN[C@@H](C(=O)N[C@H](C(=O)N(C)[C@H](/C=C(\C)C(=O)O)C(C)C)C(C)(C)C)C(C)(C)c1ccc(Cl)cc1 [Example 6, 4-Chloro-N,β,β-trimethyl-D-phenylalanyl-N^1-[(1S,2E)-3-carboxy-1-isopropyl-2-butenyl]-N^1,3-dimethyl-L-valinamide] | 162.4 | 1380 | 2.0 | 17.4 | 8.5 |  |  |  |  |
| CCOC(=O)/C(C)=C/[C@H](C(C)C)N(C)C(=O)[C@@H](NC(=O)[C@@H](NC)C(C)(C)c1ccccc1)C(C)(C)SC [Example 79, Ethyl (E,4S)-2,5-dimethyl-4-{methyl[(2R)-3-methyl-2-{[(2S)-3-methyl-2-(methylamino)-3-phenylbutanoyl]amino}-3-(methylsulfanyl)butanoyl]amino}-2-hexenoate] | 5.4 | 2440 | 3.2 | 1420 | 449 |  |  |  |  |
| CN[C@H](C(=O)N[C@H](C(=O)N(C)[C@H](C[C@H](C)C(=O)O)C(C)C)C(C)(C)C)C(C)(C)c1ccccc1 [Example 123, N,β,β-trimethyl-L-phenylalanyl-N^1-[(1R,3S)-3-carboxy-1-isopropylbutyl]-N^1,3-dimethyl-L-valinamide] |  |  | 0.6 | 537 | 891 | > 3000 |  |  |  |
| CC(C)C[C@H](N)C(=O)N[C@H](C(=O)N[C@H](CC(C)C(=O)O)C(C)C)C(C)(C)C (stereo partly drawn) [Example 138, (4R)4-[((2S)-2-{[(2S)-2-amino4-methylpentanoyl]amino}-3,3-dimethylbutanoyl)amino]-2,5-dimethylhexanoic Acid] |  | ≥ 3000 |  | 1510 |  |  | 4.3 | 2.2 | 692 |
| CCC(CC)(c1ccccc1)[C@@H](NC)C(=O)N[C@H](C(=O)N(C)[C@H](/C=C(\C)C(=O)O)C(C)C)C(C)(C)C [Example 126, β,β-diethyl-N-methyl-D-phenylalanyl-N^1-[(1S,2E)-3-carboxy-1-isopropylbut-2-enyl]-N^1,3-dimethyl-L-valinamide] | 63.3 | 1140 | 1.3 | 23 | 18 |  |  |  |  |
| CCOC(=O)/C(C)=C/[C@H](C(C)C)N(C)C(=O)[C@@H](NC(=O)[C@@H](NC)C(C)(C)C1CCCCC1)C(C)(C)C [Reference Example 100, 3-Cyclohexyl-N-methyl-L-valyl-N^1-[(1S,2E)-4-ethoxy-1-isopropyl-3-methyl-4-oxo-2-butenyl]-N^1,3-dimethyl-L-valinamide] | 8.5 | 1950 | 2.6 | 602 | 229 |  |  |  |  |
| CCOC(=O)/C(C)=C/[C@H](C(C)C)N(C)C(=O)[C@@H](NC(=O)[C@@H](NC)C(C)(C)c1cccc(Cl)c1)C(C)(C)C [Example 1a, 3-Chloro-N,β,β-trimethyl-L-phenylalanyl-N^1-[(1S,2E)4-ethoxy-1-isopropyl-3-methyl-4-oxo-2-butenyl]-N^1,3-dimethyl-L-valinamide] | 5.3 | ≥ 3000 | 3.1 | 1740 | 562 |  |  |  |  |
| CNC(C(=O)NC(C)C(=O)N(C)C(C=C(C)C(=O)O)C(C)C)C(C)(C)c1ccccc1.O=C(O)C(F)(F)F (centres unmarked) [Example 103, 2,5-dimethyl-4-{methyl-[2-(3-methyl-2-methylamino-3-phenyl-butyrylamino)-propionyl]-amino}-hex-2-enoic Acid Trifluoroacetic Acid] | 15.3 | 2610 | 13.3 | 2260 | 170 |  |  |  |  |
